Data reported in paper PMC5464344, “Analgesic and anti‐inflammatory properties of novel, selective, and potent EP4 receptor antagonists” (Pharmacology Research & Perspectives, 2017).
One block for each compound: values may come before it.

Columns and labels:
[1] = system: male Lewis rats, MIA injected knee; assay: Rat MIA model of pain (incapacitance testing); format: in vivo; details: 1 h post dose, P < 0.05 by Dunnett's test
Protocol: (§1) For the monoiodoacetate (MIA) and adjuvant induced arthritis (AIA) studies, male Lewis rats (Envigo, Indianapolis, IN) of approximately 8 weeks of age at the time of disease induction were used. For collagen induced arthritis studies (CIA) female Lewis rats (Charles River) weighing 150–170 g were used. Rats were housed in groups of 2 or 3 per cage and maintained in a constant temperature, and on a 12 h light/12 h dark cycle. Animals had free access to food and water at all times except during data collection.
The right knees of rats were injected with 0.3 mg of MIA (Sigma Aldrich) in 50 μL of saline and the left knees with 50 μL of saline on day zero. These intra‐articular injections are directly into the synovial cavity of the flexed knee joint through the patella ligament. Twelve days later, the rats were randomized into groups of five rats using body weight and the Block Randomized Allocation Tool. […] Reference compound CJ‐042,794 was also tested in the MIA model on day 14 post MIA injection at doses of 1, 3, 10, 30, and 50 mg/kg with the vehicle being 10% Solutol in PEG400 (n = 4 rats per group). The nonsteroidal anti‐inflammatory drug (NSAID) diclofenac was included in all studies at a dose of 5 mg/kg as a positive control. […] Pain was measured using incapacitance testing. […]

[2] = target: T1, DP1(h); agonist radioligand (Homo sapiens, UniProt Q13258); assay: Off-target activity (CEREP), DP1; format: binding; details: 10 μmol/L; obtained at CEREP (Blanco et al. 2016c)
T1 construct: CEREP (contract laboratory that ran the assay)
T1 sequence (Q13258 1-359): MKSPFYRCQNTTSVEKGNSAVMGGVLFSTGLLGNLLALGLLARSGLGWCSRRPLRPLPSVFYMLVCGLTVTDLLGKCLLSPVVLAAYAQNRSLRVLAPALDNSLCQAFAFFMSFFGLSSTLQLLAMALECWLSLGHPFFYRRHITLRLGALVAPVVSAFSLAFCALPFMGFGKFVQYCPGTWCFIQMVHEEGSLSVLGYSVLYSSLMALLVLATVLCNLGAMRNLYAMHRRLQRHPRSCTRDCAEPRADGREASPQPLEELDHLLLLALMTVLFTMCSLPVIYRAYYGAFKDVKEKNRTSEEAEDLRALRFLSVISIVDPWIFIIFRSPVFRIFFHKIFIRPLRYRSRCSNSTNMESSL
Text: (§2) The off‐target activity related to prostaglandin pathway (Table 2) were obtained at CEREP (Blanco et al. 2016c).

[3] = system: male Lewis rats, adjuvant induced arthritis; design: method as in Blanco et al. 2016b; details: results published previously, ref Blanco et al. 2016b; cited from earlier work
[4] = target: T2, FP(h); agonist radioligand (Homo sapiens, UniProt P43088); assay: Off-target activity (CEREP), FP; format: binding; details: 10 μmol/L; obtained at CEREP (Blanco et al. 2016c)
T2 construct: CEREP (contract laboratory that ran the assay)
Text: as §2

[5] = system: male Lewis rats, MIA injected knee; design: method as in Blanco et al. 2016b; details: results published previously, ref Blanco et al. 2016b; cited from earlier work
COX2 (h) = target: T3, COX2 (h) (Homo sapiens, UniProt P35354); assay: Off-target activity (CEREP), COX2; format: biochemical; details: 10 μmol/L; obtained at CEREP (Blanco et al. 2016c); read-out: % Inh COX2 (h)
T3 construct: CEREP (contract laboratory that ran the assay)
T3 sequence (P35354 18-604): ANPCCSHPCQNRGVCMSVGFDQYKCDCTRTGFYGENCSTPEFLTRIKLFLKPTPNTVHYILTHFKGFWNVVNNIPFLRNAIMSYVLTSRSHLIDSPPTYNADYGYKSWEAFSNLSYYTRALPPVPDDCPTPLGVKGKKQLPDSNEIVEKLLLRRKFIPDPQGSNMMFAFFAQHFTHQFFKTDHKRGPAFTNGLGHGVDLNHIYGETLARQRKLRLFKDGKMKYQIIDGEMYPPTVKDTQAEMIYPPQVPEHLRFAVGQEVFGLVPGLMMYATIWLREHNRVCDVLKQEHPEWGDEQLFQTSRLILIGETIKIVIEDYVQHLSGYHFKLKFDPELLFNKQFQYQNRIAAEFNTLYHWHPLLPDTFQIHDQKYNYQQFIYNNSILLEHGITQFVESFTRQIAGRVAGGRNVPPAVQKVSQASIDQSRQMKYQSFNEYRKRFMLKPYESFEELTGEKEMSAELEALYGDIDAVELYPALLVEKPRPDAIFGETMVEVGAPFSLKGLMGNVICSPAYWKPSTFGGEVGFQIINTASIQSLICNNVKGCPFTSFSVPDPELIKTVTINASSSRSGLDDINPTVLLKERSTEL
Text: as §2

[6] = target: T4, IP (PGI2) (h), agonist radioligand (Homo sapiens, UniProt P43119); assay: Off-target activity (CEREP), IP; format: binding; details: 10 μmol/L; obtained at CEREP (Blanco et al. 2016c); read-out: % Inh IP (PGI2) (h), agonist radioligand
T4 construct: CEREP (contract laboratory that ran the assay)
Text: as §2

COXl (h) = target: T5, COXl (h) (Homo sapiens, UniProt P23219); assay: Off-target activity (CEREP), COX1; format: biochemical; details: 10 μmol/L; obtained at CEREP (Blanco et al. 2016c); Compound 1 value footnoted: non-specific assay interference
T5 construct: CEREP (contract laboratory that ran the assay)
Text: as §2

[7] = system: female Lewis rats, collagen induced arthritis; assay: Type-II CIA model of inflammation and autoimmunity; format: in vivo; details: rat CIA
Protocol: as §1
On day 1 of the study ankle widths are measured across the joint (left side to right side) at the thickest point with calipers and rats immunized intradermally near the base of the tail with 0.4 mL of 1 mg/mL type II collagen (Elastin Products) emulsified with incomplete Freund's adjuvant (Sigma Aldrich). A second booster injection booster of 0.4 mL of the collagen emulsion was given on day 8 of the study. Ankle widths were measured on day 8 before the collagen injection and every 2–3 days thereafter until study end. On day 11 rats were randomized into five groups of eight animals based on inflammation (redness and/or swelling) in their hind paws and body weight. Rats were then dosed with vehicle (10% Acacia plus 0.05% antifoam) and compound 3 at doses of 3, 10, and 30 mg/kg. Prednisolone was included at a dose of 10 mg/kg as a positive control. Dosing was by oral gavage once daily for seventeen days at a dose volume of 5 mL/kg. On day 28 rats were euthanized and hind paws and knee joints collected for histology. Ankles and knees were fixed in neutral buffered formalin, decalcified, embedded in paraffin, and sectioned according to standard histological methodology and the joints were then scored by a pathologist using published scoring criteria (Bendele 2001; Levine et al. 2014).

T4 sequence (P43119 whole entry): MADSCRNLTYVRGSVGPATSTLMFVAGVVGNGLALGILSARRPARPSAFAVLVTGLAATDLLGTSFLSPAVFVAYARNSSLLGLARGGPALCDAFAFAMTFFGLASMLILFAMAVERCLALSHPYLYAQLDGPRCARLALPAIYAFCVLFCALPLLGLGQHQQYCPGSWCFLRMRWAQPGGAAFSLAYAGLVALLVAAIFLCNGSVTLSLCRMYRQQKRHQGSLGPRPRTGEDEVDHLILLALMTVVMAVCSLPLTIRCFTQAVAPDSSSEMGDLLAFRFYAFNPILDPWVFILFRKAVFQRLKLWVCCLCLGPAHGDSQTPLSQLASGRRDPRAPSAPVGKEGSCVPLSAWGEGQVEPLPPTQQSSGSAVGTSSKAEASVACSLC
T2 sequence (P43088 whole entry): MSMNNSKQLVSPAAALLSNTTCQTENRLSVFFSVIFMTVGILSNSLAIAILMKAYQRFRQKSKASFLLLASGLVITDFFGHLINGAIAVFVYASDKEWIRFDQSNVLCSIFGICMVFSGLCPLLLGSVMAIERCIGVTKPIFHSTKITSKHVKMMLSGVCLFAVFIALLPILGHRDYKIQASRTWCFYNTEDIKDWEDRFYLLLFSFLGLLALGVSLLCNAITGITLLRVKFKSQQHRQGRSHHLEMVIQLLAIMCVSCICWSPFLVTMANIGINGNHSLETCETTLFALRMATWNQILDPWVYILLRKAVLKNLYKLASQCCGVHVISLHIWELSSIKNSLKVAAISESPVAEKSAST
T5 sequence (P23219 24-599): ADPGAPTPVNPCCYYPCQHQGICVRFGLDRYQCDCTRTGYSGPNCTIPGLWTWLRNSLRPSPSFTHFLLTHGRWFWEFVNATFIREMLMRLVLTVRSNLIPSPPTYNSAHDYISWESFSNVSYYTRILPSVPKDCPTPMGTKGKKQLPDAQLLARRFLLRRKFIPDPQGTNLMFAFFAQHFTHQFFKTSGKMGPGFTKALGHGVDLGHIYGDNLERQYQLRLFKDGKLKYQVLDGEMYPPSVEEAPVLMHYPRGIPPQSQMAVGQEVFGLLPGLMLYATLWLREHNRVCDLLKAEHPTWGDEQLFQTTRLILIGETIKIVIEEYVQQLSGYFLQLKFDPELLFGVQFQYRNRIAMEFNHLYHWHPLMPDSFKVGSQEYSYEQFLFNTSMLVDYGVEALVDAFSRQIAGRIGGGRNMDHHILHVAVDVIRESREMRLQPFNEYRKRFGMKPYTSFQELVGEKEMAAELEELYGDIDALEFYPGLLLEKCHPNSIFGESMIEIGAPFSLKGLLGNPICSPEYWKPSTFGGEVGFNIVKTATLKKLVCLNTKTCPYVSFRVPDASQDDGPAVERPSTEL

SMILES: C[C@H](NC(=O)c1cc(Cl)ccc1Oc1ccc(F)cc1)c1ccc(C(=O)O)cc1 [CJ‐042,794, reference compound]
- pain efficacy (incapacitance testing) versus vehicle ([1]; 3, 10, 30, and 50 mg/kg oral): significantly different from vehicle

- % Inh DP1(h); agonist radioligand [2]: 0.00%
- % Inh FP(h); agonist radioligand [4]: −2.00%
- inhibition at 10 µM (COX2 (h)): -10%
- inhibition at 10 µM [6]: -4%
SMILES: Cc1ccc(N2CCC(O)CC2)nc1C(=O)Nc1c(C)cc(C(=O)O)cc1C [Compound 1]
- efficacy in rat AIA model of inflammation [3]: effective
- efficacy in rat MIA model of pain [5]: effective

SMILES: C[C@H](NC(=O)[C@H]1CCCCN1CCOc1ccccc1)c1ccc(C(=O)O)cc1 [Compound 2]
- % Inh DP1(h); agonist radioligand [2]: −4.00%
- pain efficacy (normalization of hind paw weight distribution, incapacitance testing) ([1]; 1, 3, and 10 mg/kg oral): effective
- % Inh FP(h); agonist radioligand [4]: −9.00%
- inhibition at 10 µM (COXl (h)): -24%
- inhibition at 10 µM (COX2 (h)): -17%
- inhibition at 10 µM [6]: 9%

SMILES: Cc1ccc(-c2cccc(CO)c2)nc1C(=O)Nc1c(C)ccc(C(=O)O)c1C [Compound 3]
- ankle histology, nearly all parameters and summed scores ([7]; 10 and 30 mg/kg oral once daily for seventeen days): significant reductions
- knee joint histopathology (representative photomicrograph) ([7]; Fig. 10 bottom panel, prednisolone 10 mg/kg, compound 3 dose not given): minimal inflammation (S) and cartilage damage (large arrow), very minimal pannus (small arrow) and bone formation (P) not visible at this magnification
- ankle joint histopathology (representative photomicrograph) ([7]; Fig. 10 top panel, prednisolone 10 mg/kg, compound 3 dose not given): moderate inflammation (S) and cartilage damage (large arrow), mild pannus (small arrow) and mild periosteal bone formation
- ankle thickness ([7]; all three doses (3, 10, and 30 mg/kg) oral once daily, data not shown): significant reduction
